Reference: PMC9503778, “Targeted Isolation of Antibiotic Brominated Alkaloids from the Marine Sponge Pseudoceratina durissima Using Virtual Screening and Molecular Networking” (Marine Drugs, 2022)
Values after ≈ are worked out from the molar mass of the structure shown.

Key:
[1] = tested on: zebrafish (Danio rerio) larvae at 5 dpf; assay: Zebrafish larvae spontaneous, unstimulated swimming bioassay; format: in vivo; settings: for Spontaneous swimming, mean distance moved: 10 nM and 100 nM, compared with 1 nM
Protocol: (§1) For the zebrafish bioactivity assay, three experiments were performed on 5 days post fertilization (dpf) zebrafish larvae treated with methanol crude extracts from all four sponge specimens, using total distance moved as an endpoint metric. Spontaneous swimming experiments were performed according to the following protocol: allowing a 2 min acclimatization period in darkness followed by a 5 min darkness swimming period, where total distance moved was measured. Simulated predator response (SPR) experiments were performed involving a 2 min acclimatization period in light conditions, followed by 3 min in light free swimming and a measurement period of 3 mins in dark. Finally, a Larval Photo-motor Response (LPR) experiment was conducted beginning with 2 mins light acclimatization followed by three cycles of alternating photic stimulus (each cycle consisting of 4 min light –4 min dark conditions to assess the profile of the treatment across time, Figure 8.
(§2) Basal behavioral analysis was conducted on zebrafish (Danio rerio) larvae at 5 dpf using an in-house custom-built behavioral analysis system. All assays followed standard protocols as previously described.
(§3) Zebrafish were housed and bred in the AquaCore facility, Monash University, according to standard procedures. Larvae were maintained in E3 media (5mM NaCl, 0.17mM KCl, 0.33 mM CaCl2, 0.33 mM MgSO4, supplemented with 1 x 10 – 5% methylene blue as antimycotic).
(§4) Digital video processing and animal tracking was performed using Ethovision XT ver.16 (Noldus Inc., Wageningen, The Netherlands) using a standardized method as described before.
(§5) All data was averaged across replicate larvae for each treatment and control, respectively, and presented as mean ± SEM. Cumulative distance traveled by larvae was measured by summing the incremental distance moved by each larva between frames of video files. Statistical analysis and data presentation was performed using Prism 8 (GraphPad Software Inc., San Diego, CA, USA). Data sets were tested for outliers and normality of distribution, followed by either one-way or two-way ANOVA testing for significance. […] Where time point data was collected significance was compared for each time domain with that of vehicle controls. Significance was universally set to p < 0.05.

[2] = tested on: zebrafish (Danio rerio) larvae at 5 dpf; assay: Zebrafish larvae simulated predator response (SPR) bioassay; format: in vivo; settings: for SPR, total distance moved vs vehicle control: p < 0.0001; for SPR, profile across concentrations: 10 nM
Protocol: as §1, §2, §3, §4, §5

[3] = tested on: zebrafish (Danio rerio) larvae at 5 dpf; assay: Zebrafish Larval Photo-motor Response (LPR) bioassay; format: in vivo; settings: 1 nM, 10 nM and 100 nM
Protocol: as §1
Basal behavioral analysis was conducted on zebrafish (Danio rerio) larvae at 5 dpf using an in-house custom-built behavioral analysis system. […]
All data was averaged across replicate larvae for each treatment and control, respectively, and presented as mean ± SEM. Cumulative distance traveled by larvae was measured by summing the incremental distance moved by each larva between frames of video files. […]

[4] = tested on: Mediterranean fish species Blennius sphinx; design: method as in PMID 15018063; settings: cited from earlier work
[5] = tested on: S. aureus ATCC 25923; design: method as in PMID 8297426; settings: cited from earlier work
[6] = tested on: S. aureus; design: method as in PMID 8297426; settings: tested at 100 µg/mL; cited from earlier work
[7] = tested on: HIV; design: method as in earlier work; settings: read-out: IC50 against HIV; cited from earlier work

Compound	Spontaneous swimming, profile across concentrations ([1]; 1 nM, 10 nM, 100 nM)	Spontaneous swimming, total distance moved vs vehicle control ([1]; 1 nM, 5 dpf larvae, p < 0.0001)	Spontaneous swimming, mean distance moved [1]	SPR, profile across concentrations ([2]; 1 nM, 100 nM)	LPR, mean area under the curve across light and dark cycles vs vehicle control [3]	also measured
COC1=C(Br)[C@H](O)[C@@]2(C=C1Br)CC(C(=O)NCCCCCNC(=O)C1=NO[C@]3(C=C(Br)C(OC)=C(Br)[C@@H]3O)C1)=NO2 [Compound 3, homoaerothionin]	dose dependent hypoactivity effect	significant hyperactivity	reduced mean distance moved			SPR, total distance moved vs vehicle control ([2]; 100 nM): Clear hyperactivity
NC(=O)Cc1c(O)cc(Br)c(O)c1Br [Compound 9, subereaphenol A]		significant hyperactivity	reduced mean distance moved			
COC1(OC)C(Br)=CC(O)(CC(N)=O)C=C1Br [Compound 6, 2-(3,5-dibromo-1-hydroxy-4,4-dimethoxycyclohexa-2,5-dien-1-yl)acetamide]						Spontaneous swimming, total distance moved vs vehicle control ([1]; 10 nM, p < 0.0001): hyperactivity; Spontaneous swimming, total distance moved ([1]; 100 nM, p < 0.0001): curtailed
COC1=C(Br)[C@H](O)[C@@]2(C=C1Br)CC(C(=O)NCCCCNC(=O)C1=NO[C@]3(C=C(Br)C(OC)=C(Br)[C@@H]3O)C1)=NO2 [Compound 2, aerothionin]	biphasic distribution of mean movement data			biphasic distribution of mean movement data	biphasic distribution of mean movement data	Spontaneous swimming, total distance moved vs vehicle control ([1]; all three concentrations (1 nM, 10 nM, 100 nM)): no significant difference to the vehicle control; feeding deterrent activity, Blennius sphinx [4]: significant feeding deterrent activity
COC1=C(Br)[C@H](O)[C@](O)(CC#N)C=C1Br [Compound 1, (+)-aeroplysinin-1]	increased hypoactivity with higher concentrations	significant hyperactivity effects	reduced mean distance moved	increased hypoactivity with higher concentrations	reduced hyperactivity at higher concentrations	SPR, total distance moved vs vehicle control ([2]; 1 nM): significant hyperactivity effects; MIC against S. aureus ATCC 25923 [5]: 25 µg/mL (≈ 73.8 µM); inhibition zones in disc diffusion assays against S. aureus [6]: large inhibition zones; IC50 [7]: 14.6 µM
